Assay results reported in US20140113949A1, “METHODS FOR REDUCING NEURODEGENERATION” (NESTEC S.A., priority 2011, published 2014).

What was measured:
mTOR = mTOR mRNA expression by semi-quantitative qPCR in MDCK cells; assay type: cell-based, Canine; details: mRNA normalized to TATA box binding protein
Description: (§1) Cell Culture procedure: Commercially available Madin Darby Canine Kidney (MDCK) cells were obtained from ATCC as a stock suspension of immortalized cells. MDCK cells were cultured at 37° C. in an atmosphere of 95% air/5% CO2 and Dulbecco's Modified Eagle Medium (DMEM) media containing 10% fetal calf serum and 1% antibiotic/antimicrobial solution (DMEM-loaded). The media was changed and cells passed every 1 to 2 days using a solution containing 0.05% trypsin. For RNA extraction, cells were plated at a seeding density of 50,000 to 60,000 cells/cm^2 in 35 mm dishes. Twenty-four hours after seeding, media was changed to either control (DMEM-loaded) or test media (DMEM-loaded+1 nM melatonin). Cells were harvested 1, 3, or 5 days after exposure to control or test media. Media was changed in the remaining dishes on the days of cell harvesting. Total RNA was harvested from MDCK cell lysates using RNAlater RNA stabilization reagent and following the manufacturer's directions (Ambion, Austin, Tex.). mRNA transcripts of mTOR, S6 Kinase, and TATA box binding protein genes were analyzed by semi-quantitative qPCR on days 1, 3, and 5 of media treatment. TATA box binding protein gene transcript was used to normalize the expression of mTOR and S6 Kinase, as it is widely used as a “housekeeping” gene. The procedure in Example 1 was repeated.

S6 Kinase = S6 Kinase mRNA expression by semi-quantitative qPCR in MDCK cells; assay type: cell-based, Canine; details: mRNA normalized to TATA box binding protein
Description: as §1

[1] = Trial 1, Day 1, control media + 1 nM melatonin
[2] = Trial 1, Day 3, control media + 1 nM melatonin
[3] = Trial 1, Day 5, control media + 1 nM melatonin
[4] = Trial 2, Day 1, control media + 1 nM melatonin
[5] = Trial 2, Day 3, control media + 1 nM melatonin
[6] = Trial 2, Day 5, control media + 1 nM melatonin

In the case of `COc1ccc2[nH]cc(CCNC(C)=O)c2c1` [melatonin, 5-methoxy-N-acetyltryptamine], the “mTOR Induction” value (mTOR; [1]) is reported as 0.93, the “mTOR Induction” value (mTOR; [2]) is reported as 0.76 and the “mTOR Induction” value (mTOR; [3]) is reported as 0.49. For the same molecule, the “mTOR Induction” value (mTOR; [4]) was 0.98, the “mTOR Induction” value (mTOR; [5]) was 1.02 and the “mTOR Induction” value (mTOR; [6]) was 1.01. The “S6 Kinase Induction” value (S6 Kinase; [1]) was 1.14, the “S6 Kinase Induction” value (S6 Kinase; [2]) was 0.66 and the “S6 Kinase Induction” value (S6 Kinase; [3]) was 0.51. For the same molecule, the “S6 Kinase Induction” value (S6 Kinase; [4]) was 1.05, the “S6 Kinase Induction” value (S6 Kinase; [5]) was 0.82 and the “S6 Kinase Induction” value (S6 Kinase; [6]) was 0.75.
